# Assay results published in article PMC6099623, “Novel Thiazolidinone/Thiazolo[3,2-a]Benzimidazolone-Isatin Conjugates as Apoptotic Anti-proliferative Agents Towards Breast Cancer: One-Pot Synthesis and In Vitro Biological Evaluation” (Molecules : A Journal of Synthetic Chemistry and Natural …, 2018).
# What was measured:
# [1] = tested on: MDA-MB-231 breast cancer cell line; test: Crystal Violet antiproliferative assay, MDA-MB-231; format: cell-based; settings: Homo sapiens, MDA-MB-231, 48 h, 48 h of incubation, mean ± S.D. of three separate experiments
# Method: (§1) The in vitro antiproliferative activity of the newly synthesized conjugates 4a–n and 7a–d was evaluated against breast cancer MDA-MB-231 and MCF-7 cell lines, following the Crystal Violet (CV) cell cytotoxicity assay. Doxorubicin was included in this assay as a positive control, and Sunitinib was used as a reference drug.
# (§2) Breast cancer cell lines MDA-MB-231 and MCF-7 cells were obtained from VACSERA Tissue Culture Unit. The cells were propagated in DMEM supplemented with 10% heat-inactivated fetal bovine serum, 1% L-glutamine (2.5 mM), HEPES (4-(2-hydroxyethyl)-1-piperazineethanesulfonic acid) buffer (10 mM) and 50 µg/mL gentamycin. All cells were maintained at 37 °C in a humidified atmosphere with 5% CO2 and were sub-cultured two times a week. Cytotoxicity was determined following the Crystal Violet (CV) cell cytotoxicity assay.
# (§3) Test samples were dissolved in DMSO and kept at a stock concentration of 100 mM. Exponentially growing cells were collected using 0.25% Trypsin-EDTA and seeding was done at a density of 3000 cells/well in 96-well plates. After 24 h, the monolayer cultured cells were washed with sterile phosphate buffered saline (0.01 M pH 7.2) and simultaneously the cells were treated with […] from 10 different dilutions of the test compounds as well as Doxorubicin was […] Control wells were exposed to the same concentration of vehicle, DMSO (1%) used in the highest concentration of the test samples. Cell viability was >99% compared to untreated cells. The number of the surviving cells was determined by staining the cells with crystal violet followed by cell lysing using 33% glacial acetic acid. The absorbance was measured at 490 nm using ELISA reader (Thermo Fisher Scientific, Waltham, MA, USA) after gentle shaking. The absorbance values from untreated cells were considered as 100% proliferation.
# (§4) The number of viable cells was determined using ELISA reader as previously mentioned and the percentage of viability was calculated as […] where ODt is the mean optical density of wells treated with the test sample and ODc is the mean optical density of untreated cells. The 50% inhibitory concentration (IC50) was estimated from graphic plots of the dose response curve for each conc. using GraphPad Prism software, Version 5 (San Diego, CA, USA). The data presented are the mean of at least three separate experiments.
# [2] = tested on: MCF-7 breast cancer cell line; test: Crystal Violet antiproliferative assay, MCF-7; format: cell-based; settings: Homo sapiens, MCF7, 48 h, Crystal Violet assay; 48 h of incubation; mean ± S.D. of three separate experiments
# Method: as §1, §2, §3, §4
# [3] = tested on: lung fibroblast cell line (WI-38); test: Crystal violet cytotoxicity towards nontumorigenic WI-38; format: cell-based; settings: Homo sapiens, nontumorigenic cells, mean ± S.D. of three separate experiments
# Method: (§5) The cytotoxic activity of the active conjugates towards MDA-MB-231 cells (4c–e, 4g, 4l–n and 7a–d) was examined against nontumorigenic human lung fibroblast cell line (WI-38) and human breast epithelial cell line (MCF-10A) to investigate the potential safety of the newly prepared conjugates towards the normal cells. […] The results were expressed as IC50 values, and selectivity index was calculated (Table 2).
# (§6) The cytotoxic activity of the active conjugates towards nontumorigenic human lung fibroblast cell line (WI-38) and human breast epithelial cell line (MCF-10A) was determined using Crystal violet (CV) cell cytotoxicity assay according to the previously published procedures.
# [4] = tested on: breast epithelial cell line (MCF-10A); test: Crystal violet cytotoxicity towards nontumorigenic MCF-10A; format: cell-based, human; settings: for IC50: Homo sapiens, MCF-10A, nontumorigenic cells, mean ± S.D. of three separate experiments; for Selectivity Index (MCF-10A/MDA-MB-231): ratio of IC50 MCF-10A to IC50 MDA-MB-231
# Method: as §5, §6
smiles,measurement,setting,value
"O=C1Nc2ccccc2C1=C1SC(=Nc2ccccc2)N(c2ccccc2)C1=O [Compound 4a, 5-(2-Oxoindolin-3-ylidene)-3-phenyl-2-(phenylimino)thiazolidin-4-one]",IC50,[1],> 200 µM
same,IC50,[2],> 200 µM
"O=C1Nc2ccc(F)cc2C1=C1SC(=Nc2ccccc2)N(c2ccccc2)C1=O [Compound 4b, 5-(5-Fluoro-2-oxoindolin-3-ylidene)-3-phenyl-2-(phenylimino)thiazolidin-4-one]",melting point,,> 300 °C
same,IC50,[1],108 ± 8.2 µM
same,IC50,[2],58.5 ± 3.2 µM
"O=C1Nc2ccc(Cl)cc2C1=C1SC(=Nc2ccccc2)N(c2ccccc2)C1=O [Compound 4c, 5-(5-Chloro-2-oxoindolin-3-ylidene)-3-phenyl-2-(phenylimino)thiazolidin-4-one]",IC50,[3],87.2 ± 5.2 µM
same,IC50,[4],113 ± 5.9 µM
same,Selectivity Index (MCF-10A/MDA-MB-231),[4],4.7
same,IC50,[1],24.1 ± 2.1 µM
same,IC50,[2],29.2 ± 2.5 µM
"O=C1Nc2ccc(Br)cc2C1=C1SC(=Nc2ccccc2)N(c2ccccc2)C1=O [Compound 4d, 5-(5-Bromo-2-oxoindolin-3-ylidene)-3-phenyl-2-(phenylimino)thiazolidin-4-one]",IC50,[3],65.5 ± 4.2 µM
same,IC50,[4],80.7 ± 3.4 µM
same,Selectivity Index (MCF-10A/MDA-MB-231),[4],5.1
same,IC50,[1],15.7 ± 0.9 µM
same,IC50,[2],17.1 ± 1.1 µM
"COc1ccc2c(c1)C(=C1SC(=Nc3ccccc3)N(c3ccccc3)C1=O)C(=O)N2 [Compound 4e, 5-(5-Methoxy-2-oxoindolin-3-ylidene)-3-phenyl-2-(phenylimino)thiazolidin-4-one]",IC50,[3],193 ± 10.6 µM
same,IC50,[4],89.6 ± 5.1 µM
same,Selectivity Index (MCF-10A/MDA-MB-231),[4],2.1
same,IC50,[1],42.6 ± 3.4 µM
same,IC50,[2],52.9 ± 5 µM
"Cc1ccc2c(c1)C(=C1SC(=Nc3ccccc3)N(c3ccccc3)C1=O)C(=O)N2 [Compound 4f, 5-(5-Methyl-2-oxoindolin-3-ylidene)-3-phenyl-2-(phenylimino)thiazolidin-4-one]",IC50,[1],60.9 ± 4.2 µM
same,IC50,[2],22.8 ± 2 µM
"Cc1cc(C)c2c(c1)C(=C1SC(=Nc3ccccc3)N(c3ccccc3)C1=O)C(=O)N2 [Compound 4g, 5-(5,7-Dimethyl-2-oxoindolin-3-ylidene)-3-phenyl-2-(phenylimino)thiazolidin-4-one]",IC50,[3],120 ± 7.8 µM
same,IC50,[4],142 ± 7.9 µM
same,Selectivity Index (MCF-10A/MDA-MB-231),[4],3.25
same,melting point,,> 300 °C
same,IC50,[1],43.6 ± 3.1 µM
"Cc1ccc(N=C2SC(=C3C(=O)Nc4ccccc43)C(=O)N2c2ccc(C)cc2)cc1 [Compound 4h, 5-(2-Oxoindolin-3-ylidene)-3-(p-tolyl)-2-(p-tolylimino)thiazolidin-4-one]",melting point,,> 300 °C
same,IC50,[1],51.7 ± 2.1 µM
same,IC50,[2],56 ± 3.7 µM
"Cc1ccc(N=C2SC(=C3C(=O)Nc4ccc(F)cc43)C(=O)N2c2ccc(C)cc2)cc1 [Compound 4i, 5-(5-Fluoro-2-oxoindolin-3-ylidene)-3-(p-tolyl)-2-(p-tolylimino)thiazolidin-4-one]",melting point,,> 300 °C
same,IC50,[1],152 ± 11.5 µM
same,IC50,[2],105 ± 7.5 µM
"Cc1ccc(N=C2SC(=C3C(=O)Nc4ccc(Cl)cc43)C(=O)N2c2ccc(C)cc2)cc1 [Compound 4j, 5-(5-Chloro-2-oxoindolin-3-ylidene)-3-(p-tolyl)-2-(p-tolylimino)thiazolidin-4-one]",melting point,,> 300 °C
same,IC50,[1],50.8 ± 3.5 µM
same,IC50,[2],> 200 µM
"Cc1ccc(N=C2SC(=C3C(=O)Nc4ccc(Br)cc43)C(=O)N2c2ccc(C)cc2)cc1 [Compound 4k, 5-(5-Bromo-2-oxoindolin-3-ylidene)-3-(p-tolyl)-2-(p-tolylimino)thiazolidin-4-one]",melting point,,> 300 °C
same,IC50,[1],> 200 µM
same,IC50,[2],> 200 µM
"COc1cccc2c1C(=O)c1c(O)c3c(c(O)c1C2=O)C[C@@](O)(C(=O)CO)C[C@@H]3O[C@H]1C[C@H](N)[C@H](O)[C@H](C)O1 [Dox., Doxorubicin, reference compound]",IC50,[1],4.7 ± 0.4 µM
same,IC50,[2],3.8 ± 0.4 µM
"CCN(CC)CCNC(=O)c1c(C)[nH]c(/C=C2\C(=O)Nc3ccc(F)cc32)c1C [Sunitinib, reference compound]",IC50,[1],5.5 ± 0.5 µM
same,IC50,[2],3.4 ± 0.3 µM
